Reference: US8668921B2, “Lipase inhibitors” (Suntory Holdings Limited, priority 2004, dated 2014)

Tested on: not given
Experiment: not given
Conditions: reported in the literature; cited from earlier work

In the case of `CCCCCCCCCCC[C@@H](C[C@@H]1OC(=O)[C@H]1CCCCCC)OC(=O)[C@H](CC(C)C)NC=O` [Xenical], the adverse side effects is listed as “fatty stools, increased stool frequency, loose stools, diarrhea and abdominal pain”.
In the case of `OC1(c2ccc(Cl)cc2)c2ccccc2C2=NCCN21` (stereo not drawn) [Mazindol], the adverse side effects is listed as “dry mouth, constipation, stomach discomfort and nausea/vomiting”.

Molecular target: T1, porcine pancreatic lipase (Sus scrofa, UniProt P00591)
T1 construct: purchased Sigma
T1 sequence (P00591 1-450): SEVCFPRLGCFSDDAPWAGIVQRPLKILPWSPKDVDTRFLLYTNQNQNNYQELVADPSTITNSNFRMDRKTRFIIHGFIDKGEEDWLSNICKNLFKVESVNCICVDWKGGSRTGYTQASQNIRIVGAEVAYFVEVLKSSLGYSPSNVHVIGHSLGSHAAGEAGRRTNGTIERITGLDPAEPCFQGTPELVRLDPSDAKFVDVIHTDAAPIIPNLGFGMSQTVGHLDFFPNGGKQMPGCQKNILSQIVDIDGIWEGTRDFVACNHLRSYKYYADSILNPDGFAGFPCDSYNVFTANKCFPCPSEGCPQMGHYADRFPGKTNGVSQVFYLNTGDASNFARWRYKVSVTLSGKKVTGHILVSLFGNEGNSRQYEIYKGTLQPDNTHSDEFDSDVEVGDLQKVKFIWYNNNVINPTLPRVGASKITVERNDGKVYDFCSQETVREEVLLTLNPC
Experiment: Lipase inhibitory activity assay (4-MUO fluorescent substrate)
Format: biochemical
Conditions: method of Example 1
Description: A lipase activity assay was performed by using the oleate ester of fluorescent 4-methylumbelliferone (4-MUO) as a substrate to measure the fluorescence of 4-methylumbelliferone produced by reaction.
The buffer used for the assay was 13 mM Tris-HCl (pH 8.0) containing 150 mM NaCl, 1.36 mM CaCl2. The enzyme assay was performed using a 0.1 M solution of the substrate 4-MUO (Sigma) in DMSO diluted 1:1000 in said buffer and a solution of porcine pancreatic lipase (Sigma) prepared at 400 U/ml also in said buffer.
An enzymatic reaction was started by adding 25 μl of the lipase/buffer solution after 50 μl of the 4-MUO/buffer solution and 25 μl of distilled water (or an aqueous solution of each sample) were added and mixed in a 96-well microplate at 25° C. After the reaction was performed for 30 minutes, the reaction was stopped by adding 100 μl of a 0.1 M citrate buffer (pH 4.2) and the fluorescence of 4-methylumbelliferone produced by the reaction (excitation 355 nm, emission 460 nm) was measured using a fluorescence plate reader (Fluoroskan Asent CF from Labsystems).
The inhibitory activity of each test sample was determined as IC50(μM), i.e. the amount of the sample giving 50% inhibition of the activity of the control (distilled water).

With “(−)-epigallocatechin 3-O-gallate [(−)-epigallocatechin 3-O-gallate (4)]” the “lipase inhibitory activity (in words)” value was “strongest activity among the major catechins”.

Same assay, conditions: porcine pancreatic lipase, 4-MUO substrate, 25° C., 30 minutes, pH 8.0

With `O=C(OC1Cc2c(O)cc(O)c(C(c3cc(O)c(O)c(O)c3)C(Cc3c(O)cc(O)cc3O)OC(=O)c3cc(O)c(O)c(O)c3)c2OC1c1cc(O)c(O)c(O)c1)c1cc(O)c(O)c(O)c1` (stereo not drawn) [assamicain A (9), assamicain A] the IC50 was 120 nM.
First: O=C(OC1Cc2c(O)cc(O)c(C(c3cc(O)c(O)c(O)c3)C(Cc3c(O)cc(O)cc3O)OC(=O)c3cc(O)c(O)c(O)c3)c2OC1c1cc(O)c(O)c(O)c1)c1cc(O)c(O)c(O)c1 (stereo not drawn) [assamicain B (10), assamicain B]
Second: O=C(O[C@@H]1Cc2c(O)cc(O)cc2O[C@H]1c1cc(O)c(O)c(O)c1)c1cc(O)c(O)c(O)c1 [(−)-gallocatechin 3-O-gallate (8), (−)-gallocatechin 3-O-gallate]
The IC50 of the first is 1.9-fold lower: 186 nM for the first, 349 nM for the second. The first is the more potent here.

`Oc1cc(O)c2c(c1)O[C@H](c1ccc(O)c(O)c1)[C@H](O)C2` [(−)-epicatechin (1), (−)-epicatechin] and `Oc1cc(O)c2c(c1)O[C@H](c1cc(O)c(O)c(O)c1)[C@@H](O)C2` [(+)-gallocatechin (7), (+)-gallocatechin] cannot be ordered by IC50: over 21600 nM for the first, over 163000 nM for the second.

“(−)-epigallocatechin 3-O-gallate [(−)-epigallocatechin 3-O-gallate (4)]” and `O=C(O[C@@H]1Cc2c(O)cc(O)cc2O[C@@H]1c1cc(O)c(O)c(O)c1-c1c([C@H]2Oc3cc(O)cc(O)c3C[C@H]2O)cc(O)c(O)c1O)c1cc(O)c(O)c(O)c1` [theasinensin B (12), theasinensin B] are within 1.5-fold of each other in IC50: 284 nM for the first, 276 nM for the second.

First: Oc1cc(O)c2c(c1)O[C@H](c1cc(O)c(O)c(O)c1)[C@H](O)C2 [(−)-epigallocatechin (3), (−)-epigallocatechin]
Second: O=C1C=C2c3c(cc(O)c4c3O[C@H](c3ccc(O)c(O)c3)[C@@H](O)C4)OC23C[C@]1(O)O[C@H]1Cc2c(O)cc(O)cc2O[C@@H]13 [dehydro-dicatechin A (14), dehydro-dicatechin A]
The IC50 of the first is higher: over 20400 nM for the first, 3090 nM for the second.

`O=C(O[C@@H]1Cc2c(O)cc(O)cc2O[C@@H]1c1cc(O)c(O)c(O)c1-c1c([C@H]2Oc3cc(O)cc(O)c3C[C@H]2OC(=O)c2cc(O)c(O)c(O)c2)cc(O)c(O)c1O)c1cc(O)c(O)c(O)c1` [theasinensin A (11), theasinensin A] and `O=C(O[C@@H]1Cc2c(O)cc(O)cc2O[C@@H]1c1cc(O)c(O)c2c(=O)c(O)cc([C@H]3Oc4cc(O)cc(O)c4C[C@H]3O)cc12)c1cc(O)c(O)c(O)c1` [theaflavin 3′-O-gallate (16), theaflavin 3′-O-gallate] are within 1.5-fold of each other in IC50: 142 nM for the first, 112 nM for the second.

Going from `O=c1c(O)cc([C@H]2Oc3cc(O)cc(O)c3C[C@H]2O)cc2c([C@H]3Oc4cc(O)cc(O)c4C[C@H]3O)cc(O)c(O)c12` [theaflavin (15), theaflavin] to `Oc1cc(O)c2c(c1)OC(c1ccc(O)c(O)c1)C(O)C2` (single isomer, unassigned; (+)) [(+)-catechin (5), (+)-catechin], the IC50 rises from 106 nM to over 690000 nM.

First: O=C(O[C@@H]1Cc2c(O)cc(O)cc2O[C@@H]1c1cc(O)c(O)c(O)c1-c1c([C@H]2Oc3cc(O)cc(O)c3C[C@H]2OC(=O)c2cc(O)c(O)c(O)c2)cc(O)c(O)c1O)c1cc(O)c(O)c(O)c1 [theasinensin D (13), theasinensin D]
Second: O=C(O[C@@H]1Cc2c(O)cc(O)cc2O[C@@H]1c1ccc(O)c(O)c1)c1cc(O)c(O)c(O)c1 [(−)-epicatechin 3-O-gallate (2), (−)-epicatechin 3-O-gallate]
The IC50 of the first is 2.8-fold lower: 98 nM for the first, 271 nM for the second. The first is the more potent here.
